# Key:
# [1] = system: Staphylococcus aureus-SMITH (GC 4543); assay: Acute lethal infection in mice (ED50); type: in vivo; conditions: female CD-1 mice, intraperitoneal challenge, intravenous dose 30 min. after infection, 7 day survival ratios
# Outline: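 Lethal systemic infection model: female CD-1 mice, 20 ± 1-2 g, intraperitoneal challenge. Single intravenous treatment 30 min after infection; 7-day survival, pooled from 3 tests, gives ED50.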
# Streptococcus sp. = assay: In vitro antibacterial evaluation: minimum inhibitory concentration (MIC), broth dilution method; type: cell-based; conditions: 18 hours at 35° C.
# Outline: (§1)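 First, organisms are seeded at 5×10^5 CFU/mL into Muller-Hinton II […]. Next, antibiotic is applied across 64-0.06 μg/mL by broth dilution (NCCLS M7-A2). Finally, the lowest inhibitory concentration is recorded as MIC.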
# Staphylococcus sp. = assay: as above; type: cell-based
# Outline: as §1
# Escherichia coli = assay: as above; type: cell-based; conditions: 18 hours at 35° C.
# Outline: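 NCCLS M7-A2 broth dilution; Muller-Hinton II […]; 5×10^5 CFU/mL; 64-0.06 μg/mL. MIC = lowest concentration with no growth.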
# Enterococcus sp. = assay: as above; type: cell-based; conditions: 18 hours at 35° C.
# Outline: as §1
# [2] = Anatomic pathology (heart and kidney histopathology) in mice; type: in vivo, CD-1 mice; conditions: 20 mg/kg intravenously daily for 9 days, microscopic histopathology on day 10
# Outline: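 Juvenile CD-1 mice (20 days old; 5 vehicle, 5 treated) received glycopeptide antibiotic 20 mg/kg i.v. daily for 9 days. Necropsied tissues formalin-fixed, paraffin-embedded, H&E stained and examined microscopically; findings graded slight to severe versus controls.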
# [3] = broth dilution, inoculum 5×10^5 CFU/mL
smiles,measurement,setting,value
CC(c1ccccc1)C1NC(=O)CNC(=O)C(CO)NC(=O)C(CC2CNC(=N)N2C2OC(CO)C(O)C(O)C2O)NC(=O)C(CC2CNC(=N)N2)NC(=O)C(Cc2ccc(OC3OC(CO)C(OC4OC5COC6(OC5C(O)C4O)C4CC5CC(C4)CC6C5)C(O)C3O)cc2)NC1=O (stereo not shown) [Example 219],"median effective dose (ED50), Staphylococcus aureus-SMITH (GC 4543)",[1],0.5 mg/kg
same,MIC Streptococcus agalactiae (GC 4564),Streptococcus sp.; Streptococcus agalactiae (GC 4564),2 µg/mL
same,MIC Streptococcus pneumoniae (ATCC 6301),Streptococcus sp.; Streptococcus pneumoniae (ATCC 6301),0.5 µg/mL
same,MIC Streptococcus pneumoniae (GC 1894),Streptococcus sp.; Streptococcus pneumoniae (GC 1894),1 µg/mL
same,MIC Streptococcus pneumoniae (GC 4565),Streptococcus sp.; Streptococcus pneumoniae (GC 4565),2 µg/mL
same,MIC Streptococcus pyogenes (GC 4563),Streptococcus sp.; Streptococcus pyogenes (GC 4563),2 µg/mL
same,MIC Streptococcus agalactiae (GC 4564),Streptococcus sp.; [3],2 µg/mL
same,MIC Streptococcus pneumoniae (ATCC 6301),Streptococcus sp.; [3],0.5 µg/mL
same,MIC Streptococcus pneumoniae (GC 1894),Streptococcus sp.; [3],1 µg/mL
same,MIC Streptococcus pneumoniae (GC 4565),Streptococcus sp.; [3],2 µg/mL
same,MIC Streptococcus pyogenes (GC 4563),Streptococcus sp.; [3],2 µg/mL
same,MIC Staphylococcus aureus (ATCC 29213),Staphylococcus sp.; strain ATCC 29213,4 µg/mL
same,MIC Staphylococcus aureus (GC 1131),Staphylococcus sp.; strain GC 1131,4 µg/mL
same,MIC Staphylococcus aureus (GC 3051),Staphylococcus sp.; strain GC 3051,2 µg/mL
same,MIC Staphylococcus aureus (GC 3053),Staphylococcus sp.; strain GC 3053,2 µg/mL
same,MIC Staphylococcus aureus (GC 4541),Staphylococcus sp.; strain GC 4541,2 µg/mL
same,MIC Staphylococcus aureus (GC 4542),Staphylococcus sp.; strain GC 4542,2 µg/mL
same,MIC Staphylococcus aureus-SMITH (GC 4543),Staphylococcus sp.; strain GC 4543,2 µg/mL
same,MIC Staphylococcus aureus (GC 4544),Staphylococcus sp.; strain GC 4544,8 µg/mL
same,MIC Staphylococcus aureus (GC 4545),Staphylococcus sp.; strain GC 4545,2 µg/mL
same,MIC Staphylococcus haemolyticus (GC 4546),Staphylococcus sp.; strain GC 4546,2 µg/mL
same,MIC Coagulase Negative Staphylococcus (GC 4547),Staphylococcus sp.; strain GC 4547,2 µg/mL
same,MIC Coagulase Negative Staphylococcus (GC 4548),Staphylococcus sp.; strain GC 4548,2 µg/mL
same,MIC Coagulase Negative Staphylococcus (GC 4549),Staphylococcus sp.; strain GC 4549,2 µg/mL
same,MIC Coagulase Negative Staphylococcus (GC 4551),Staphylococcus sp.; strain GC 4551,4 µg/mL
same,MIC Coagulase Negative Staphylococcus (GC 6257),Staphylococcus sp.; strain GC 6257,1 µg/mL
same,MIC Escherichia coli (ATCC 25922),Escherichia coli; Escherichia coli (ATCC 25922),64 µg/mL
same,MIC Escherichia coli (GC 4559),Escherichia coli; Escherichia coli (GC 4559),64 µg/mL
same,MIC Escherichia coli (GC 4560),Escherichia coli; Escherichia coli (GC 4560),4 µg/mL
same,MIC Enterococcus avium (GC 4558),Enterococcus sp.; Enterococcus avium (GC 4558),4 µg/mL
same,MIC Enterococcus faecalis (ATCC 29212),Enterococcus sp.; Enterococcus faecalis (ATCC 29212),16 µg/mL
same,MIC Enterococcus faecalis (GC 2242),Enterococcus sp.; Enterococcus faecalis (GC 2242),8 µg/mL
same,MIC Enterococcus faecalis (GC 2691),Enterococcus sp.; Enterococcus faecalis (GC 2691),8 µg/mL
same,MIC Enterococcus faecalis (GC 3059),Enterococcus sp.; Enterococcus faecalis (GC 3059),16 µg/mL
same,MIC Enterococcus faecalis (GC 4552),Enterococcus sp.; Enterococcus faecalis (GC 4552),8 µg/mL
same,MIC Enterococcus faecalis (GC 4553),Enterococcus sp.; Enterococcus faecalis (GC 4553),8 µg/mL
same,MIC Enterococcus faecalis (GC 4554),Enterococcus sp.; Enterococcus faecalis (GC 4554),8 µg/mL
same,MIC Enterococcus faecalis (GC 6189),Enterococcus sp.; Enterococcus faecalis (GC 6189),8 µg/mL
same,MIC Enterococcus faecium (GC 2243),Enterococcus sp.; Enterococcus faecium (GC 2243),8 µg/mL
same,MIC Enterococcus faecium (GC 4556),Enterococcus sp.; Enterococcus faecium (GC 4556),8 µg/mL
same,MIC Enterococcus faecium (GC 4557),Enterococcus sp.; Enterococcus faecium (GC 4557),4 µg/mL
same,MIC Enterococcus avium (GC 4558),Enterococcus sp.; [3],4 µg/mL
same,MIC Enterococcus faecalis (ATCC 29212),Enterococcus sp.; [3],16 µg/mL
same,MIC Enterococcus faecalis (GC 2242),Enterococcus sp.; [3],8 µg/mL
same,MIC Enterococcus faecalis (GC 2691),Enterococcus sp.; [3],8 µg/mL
same,MIC Enterococcus faecalis (GC 3059),Enterococcus sp.; [3],16 µg/mL
same,MIC Enterococcus faecalis (GC 4552),Enterococcus sp.; [3],8 µg/mL
same,MIC Enterococcus faecalis (GC 4553),Enterococcus sp.; [3],8 µg/mL
same,MIC Enterococcus faecalis (GC 4554),Enterococcus sp.; [3],8 µg/mL
same,MIC Enterococcus faecalis (GC 6189),Enterococcus sp.; [3],8 µg/mL
same,MIC Enterococcus faecium (GC 2243),Enterococcus sp.; [3],8 µg/mL
same,MIC Enterococcus faecium (GC 4556),Enterococcus sp.; [3],8 µg/mL
same,MIC Enterococcus faecium (GC 4557),Enterococcus sp.; [3],4 µg/mL
same,"Anatomical Pathology (Day 10), Heart",[2],0
same,"Anatomical Pathology (Day 10), Kidney",[2],+++

# Source: patent US8247211B2, “Glycopeptide antibiotics” (American Cyanamid Company, priority 2001, dated 2012)
